Laboratory results reported in US20250288570A1, “TREATMENT OF NEUROLOGICAL DISORDERS” (Praxis Precision Medicines, Inc., priority 2022, published 2025).

Legend:
[1] = Phase 1 clinical trial, single ascending dose (Part A), healthy volunteers; format: in vivo, human
Text: This is a trial to assess the safety, tolerability, pharmacokinetics (PK), and pharmacodynamics (PD) of Compound 1 in healthy participants aged 18 to 55 years (inclusive). The trial is initially comprised of 2 parts, with 1 additional optional part, as follows: • Part A is randomized, double-blinded, and placebo-controlled. Part A is designed to investigate the safety, PK, and PD of single ascending doses of Compound 1. • Part B is randomized, double-blinded, and placebo-controlled. Part B is designed to investigate the safety, PK, and PD of multiple ascending doses (selected based on the results from Part A) of Compound 1. • Part C (optional) is a randomized, open-label, crossover design food effect evaluation to investigate the PK of a single dose (selected based on the results from Part A) of Compound 1 in the fasted and fed state.
Safety and tolerability assessments for Parts A, B, and C will include vital signs, 12-lead ECGs, physical examinations, clinical laboratory tests, and the C-SSRS (for Part B).
Healthy participants will be enrolled to receive single ascending oral doses of Compound 1 or placebo on Day 1. FIG. 14A is an illustration of the dosing scheme for Part A (single ascending dose) of the trial. Dose escalation in Part A will initially be conducted in up to a total of 4 planned cohorts (Cohorts A1 to A4). Following completion of Cohort A4, up to an additional 3 escalation cohorts may be added. […] Doses may be adjusted upward or downward based on safety, tolerability, and PK data from the preceding cohorts. Cohorts after A4 will be numbered sequentially (A5, A6, etc.). […]
Compound 1 will be administered to Cohort A1 participants at the starting dose of 5 mg. […] The safety and tolerability of each sentinel participant will be monitored until Day 2 and will be reviewed prior to dosing the remainder of participants in the cohort. […]
Cohorts will be dosed in an escalating order. […] If the current dose level is determined to be safe and tolerated by the SRC, the next dose cohort will be randomized to receive the selected dose of active Compound 1 or placebo. […]

[2] = test system: scPTZ-induced seizures in CD-1 mice; test: Subcutaneous pentylenetetrazole (scPTZ) induced seizure test; format: in vivo, mouse
Procedure: The subcutaneous pentylenetetrazole (scPTZ) test is a validated model for evaluating the anti-seizure potential of compounds. The positive control valproate is an approved anti-seizure medicine (ASM). This study evaluated the efficacy of Compound 1 to attenuate scPTZ-induced seizures in wildtype CD-1 mice. Doses of Compound 1 used were 1 mg/kg, 3 mg/kg, 6 mg/kg and 10 mg/kg administered orally. Valproate (600 mg/kg, administered intraperitoneally) was used as a positive control as it has a broad spectrum of anticonvulsant activity.
Male CD-1 mice (Charles River Laboratories, St. Constant, Quebec, Canada) were used for the study. Body weights at the time the experiment was carried out were between 27 and 39 grams. The mice were group-housed in polycarbonate cages according to standard operating procedures. Animals were maintained on a 12 hour light/12 hour dark cycle, with all experimental activities occurring during the light phase. Food and water were available ad libitum. […]
Immediately prior to the administration of PTZ, a brief neurological assessment was performed. Each animal was visually assessed and received a score from 0 to 3 according to the following scoring system: neurological score of 0 corresponds to a normal status; neurological score of 1 corresponds to a modest decrease in spontaneous activity; neurological score of 2 corresponds to a marked decrease in spontaneous activity; and neurological score of 3 corresponds to loss of righting reflex.
PTZ (85 mg/kg, 10 mL/kg) was administered as a subcutaneous (s.c.) injection. […] The latency to generalized clonic seizure was recorded. Seizures were also scored using a seizure scale. Mice were scored with the following stages: 0) no seizure activity, 1) myoclonic jerks with “flat body posture”, 2) generalized clonus with loss of posture lasting ˜2 s, 3) generalized clonus with loss of posture lasting ˜10 s or 4) tonic hindlimb extension. Seizure scores were used as a qualitative measure to assess seizure incidence and were not used as a quantitative measure of pharmacological activity. […]

CCOC(F)(F)c1nnc2ccc(-c3cnc(OCC(F)(F)F)c(F)c3)cn12 [Compound 1]
safety and tolerability (in words) ([1]; healthy participants, single oral doses up to 45 mg): safe and generally well tolerated | most frequently reported TEAEs ([1]; single doses up to 45 mg): headache and fatigue | severity of treatment-emergent adverse events ([1]; single doses up to 45 mg): mild in severity | spontaneous activity (in words) ([2]; 10 mg/kg): modest reduction in spontaneous activity was observed in a single mouse | protection in PTZ acute seizure model (in words) ([2]; 1-10 mg/kg p.o.): protected from generalized clonus | neurological scores (in words) ([2]; dose range tested): Neurological scores for all but one mouse treated with Compound 1 were normal
